Data as given in ChEMBL document CHEMBL5042543, “Bridged Piperidine Analogues of a High Affinity Naphthalene-Based P2Y14R Antagonist” (J Med Chem, 2022).
Converted amounts (≈) assume the structure as drawn.

Columns and labels:
[1] = Aqueous solubility of the compound at pH 7.4
[2] = Distribution coefficient, logD of compound at pH 7.4 by HPLC analysis; type: physicochemical; conditions: octanol/water
P2Y purinoceptor 14 [3] = molecular target: T1, P2Y purinoceptor 14 (Homo sapiens, UniProt Q15391); test: cell-based
T1 sequence (Q15391 whole entry): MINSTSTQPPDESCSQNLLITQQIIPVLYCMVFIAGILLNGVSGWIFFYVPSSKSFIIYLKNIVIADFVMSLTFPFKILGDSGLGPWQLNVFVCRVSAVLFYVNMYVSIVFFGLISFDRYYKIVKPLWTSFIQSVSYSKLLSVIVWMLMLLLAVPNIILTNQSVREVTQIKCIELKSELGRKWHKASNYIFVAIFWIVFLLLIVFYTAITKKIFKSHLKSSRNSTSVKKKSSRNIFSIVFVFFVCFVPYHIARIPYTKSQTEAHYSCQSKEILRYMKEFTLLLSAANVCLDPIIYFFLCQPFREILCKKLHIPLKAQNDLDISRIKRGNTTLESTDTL
Description: Inhibition of fluorescent antagonist binding to human P2Y14R expressed in CHO cells preincubated for 30 mins followed by 6-amino-9-(2-carboxy-4-((6-(4-(4-(4-(4-(3-carboxy 6-(4-(trifluoromethyl)phenyl)naphthalen-1-yl)phenyl)piperidin-1-yl)butyl)-1H-1,2,3-triazol-1-yl)hexyl)carbamoyl)phenyl)-3-iminio-5-sulfo-3H-xanthene-4-sulfonate addition and measured after 30 mins by BD FACSCalibur flow cytometry analysis

[4] = Aqueous solubility of the compound at pH 4
liver carboxylesterase = molecular target: T2, liver carboxylesterase (Sus scrofa, UniProt Q29550); test: Stability of the compound in aqueous medium at pH 7.4 assessed as half life in presence of porcine liver esterase; type: physicochemical; conditions: pig
T2 sequence (Q29550 whole entry): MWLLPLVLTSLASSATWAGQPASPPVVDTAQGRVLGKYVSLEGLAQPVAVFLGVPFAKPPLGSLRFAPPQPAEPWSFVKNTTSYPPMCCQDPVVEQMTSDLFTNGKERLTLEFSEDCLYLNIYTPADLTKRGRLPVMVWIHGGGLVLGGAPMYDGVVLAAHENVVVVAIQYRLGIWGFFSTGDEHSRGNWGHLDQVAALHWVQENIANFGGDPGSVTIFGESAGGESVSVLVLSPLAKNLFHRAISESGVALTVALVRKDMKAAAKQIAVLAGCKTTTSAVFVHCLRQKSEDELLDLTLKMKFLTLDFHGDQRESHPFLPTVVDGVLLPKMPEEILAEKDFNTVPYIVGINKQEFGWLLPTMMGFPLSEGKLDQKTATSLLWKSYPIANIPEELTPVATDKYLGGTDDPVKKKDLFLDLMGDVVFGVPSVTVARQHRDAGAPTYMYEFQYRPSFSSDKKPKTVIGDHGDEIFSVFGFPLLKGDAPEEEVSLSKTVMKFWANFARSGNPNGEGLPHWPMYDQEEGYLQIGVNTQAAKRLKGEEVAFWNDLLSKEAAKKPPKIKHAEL

[5] = molecular target: Sigma non-opioid intracellular receptor 1 (Homo sapiens, UniProt Q99720); test: Inhibition of sigma 1 receptor (unknown origin) assessed as binding constant
Chain of Sigma non-opioid intracellular receptor 1 (Q99720 whole entry): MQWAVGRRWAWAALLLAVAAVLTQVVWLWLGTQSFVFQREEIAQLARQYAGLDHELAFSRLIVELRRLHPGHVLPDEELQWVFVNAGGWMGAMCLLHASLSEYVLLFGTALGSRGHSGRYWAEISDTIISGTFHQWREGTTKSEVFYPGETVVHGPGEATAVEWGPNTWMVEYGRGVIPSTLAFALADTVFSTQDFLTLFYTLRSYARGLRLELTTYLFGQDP

D(1B) dopamine receptor = D(1B) dopamine receptor (Homo sapiens, UniProt P21918); test: Inhibition of dopamine D5 receptor (unknown origin) assessed as binding constant
Chain of D(1B) dopamine receptor (P21918 whole entry): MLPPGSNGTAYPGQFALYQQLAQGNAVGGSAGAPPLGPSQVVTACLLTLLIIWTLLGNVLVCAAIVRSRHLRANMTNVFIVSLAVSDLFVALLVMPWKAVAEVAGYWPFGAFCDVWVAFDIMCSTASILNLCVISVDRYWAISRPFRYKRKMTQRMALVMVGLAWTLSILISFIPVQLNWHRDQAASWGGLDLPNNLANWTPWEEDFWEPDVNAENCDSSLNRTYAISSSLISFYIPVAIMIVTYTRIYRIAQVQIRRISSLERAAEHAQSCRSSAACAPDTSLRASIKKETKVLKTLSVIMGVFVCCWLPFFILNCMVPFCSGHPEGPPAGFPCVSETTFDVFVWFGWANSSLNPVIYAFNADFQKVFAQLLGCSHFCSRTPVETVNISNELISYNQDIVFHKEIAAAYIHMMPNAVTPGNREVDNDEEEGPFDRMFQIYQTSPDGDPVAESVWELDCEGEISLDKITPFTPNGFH

[6] = molecular target: Sigma intracellular receptor 2 (Homo sapiens, UniProt Q5BJF2); test: Inhibition of sigma 2 receptor (unknown origin) assessed as binding constant
Chain of Sigma intracellular receptor 2 (Q5BJF2 whole entry): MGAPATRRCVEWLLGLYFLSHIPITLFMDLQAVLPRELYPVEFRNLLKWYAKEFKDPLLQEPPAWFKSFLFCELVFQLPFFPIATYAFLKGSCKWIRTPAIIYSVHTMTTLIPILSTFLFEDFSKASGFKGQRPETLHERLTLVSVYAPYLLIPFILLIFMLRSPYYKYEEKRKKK

[7] = molecular target: Beta-3 adrenergic receptor (Homo sapiens, UniProt P13945); test: Inhibition of adrenergic beta 3 receptor (unknown origin) assessed as binding constant
Chain of Beta-3 adrenergic receptor (P13945 whole entry): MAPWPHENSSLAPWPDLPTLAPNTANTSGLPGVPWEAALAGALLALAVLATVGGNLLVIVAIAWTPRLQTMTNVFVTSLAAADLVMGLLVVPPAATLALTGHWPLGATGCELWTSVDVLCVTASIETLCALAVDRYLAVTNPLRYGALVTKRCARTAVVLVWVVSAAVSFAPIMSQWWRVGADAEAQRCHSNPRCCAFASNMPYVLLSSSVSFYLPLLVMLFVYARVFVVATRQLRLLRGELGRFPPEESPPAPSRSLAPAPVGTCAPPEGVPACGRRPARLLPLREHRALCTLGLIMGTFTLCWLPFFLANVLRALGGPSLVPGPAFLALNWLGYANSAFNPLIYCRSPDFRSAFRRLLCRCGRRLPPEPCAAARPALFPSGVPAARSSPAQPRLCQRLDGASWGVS

P2Y purinoceptor 14 [8] = molecular target: T3, P2Y purinoceptor 14 (Mus musculus, UniProt Q9ESG6); test: Inhibition of fluorescent antagonist binding to mouse P2Y14R expressed in HEK293 cells preincubated for 30 mins followed by addition of 6-amino-9-(2-carboxy-4-((6-(4-(4-(4-(4-(3-carboxy-6-(4-(trifluoromethyl)phenyl)naphthalen-1-yl)phenyl)piperidin-1-yl)butyl)-1H-1,2,3-triazol-1-yl)hexyl)carbamoyl)phenyl)-3-iminio-5-sulfo-3H-xanthene-4-sulfonate incubated for 30 mins by BD FACSCalibur flow …; type: cell-based
T3 sequence (Q9ESG6 whole entry): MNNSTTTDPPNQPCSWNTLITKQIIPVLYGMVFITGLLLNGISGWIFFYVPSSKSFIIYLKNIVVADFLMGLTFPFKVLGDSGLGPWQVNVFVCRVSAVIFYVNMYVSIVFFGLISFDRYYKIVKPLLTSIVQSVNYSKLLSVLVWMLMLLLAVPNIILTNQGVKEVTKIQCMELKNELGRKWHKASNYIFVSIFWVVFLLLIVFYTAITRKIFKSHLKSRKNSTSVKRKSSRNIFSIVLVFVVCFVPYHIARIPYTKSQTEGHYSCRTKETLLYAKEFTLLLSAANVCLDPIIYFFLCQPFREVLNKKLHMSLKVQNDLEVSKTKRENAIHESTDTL

Translocator protein = Translocator protein (Homo sapiens, UniProt P30536); test: Inhibition of TSPO receptor (unknown origin) assessed as binding constant
Chain of Translocator protein (P30536 whole entry): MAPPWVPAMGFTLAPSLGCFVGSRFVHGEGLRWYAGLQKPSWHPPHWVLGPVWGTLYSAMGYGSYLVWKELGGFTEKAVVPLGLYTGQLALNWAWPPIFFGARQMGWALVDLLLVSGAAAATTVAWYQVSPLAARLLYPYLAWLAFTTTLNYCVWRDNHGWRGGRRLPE

SMILES	solubility ([1]; buffer)	logD ([2]; read-out: logD)	IC50 (P2Y purinoceptor 14 [3])	also measured
O=C(O)c1cc(-c2ccc(C3[C@H]4CC[C@H]3CNC4)cc2)c2ccc(-c3ccc(C(F)(F)F)cc3)cc2c1 (some centres not stated)	0.16 µg/mL (≈ 0.319 µM)	3	696 nM	solubility ([4]; buffer): 0.32 µg/mL (≈ 0.638 µM)
O=C(O)c1cc(-c2ccc(C34CCNCC3C4(F)F)cc2)c2ccc(-c3ccc(C(F)(F)F)cc3)cc2c1 (racemic)	–	2.7	–	–
O=C(O)c1cc(-c2ccc(C3CC4CCC(C3)N4)cc2)c2ccc(-c3ccc(C(F)(F)F)cc3)cc2c1 (configuration not stated)	0.13 µg/mL (≈ 0.259 µM)	2.3	38.3 nM	solubility ([4]; buffer): 0.38 µg/mL (≈ 0.758 µM)
CN(C)C(=O)COC(=O)c1cc(-c2ccc([C@@H]3C[C@@H]4C[C@H]3C(=O)N4)cc2)c2ccc(-c3ccc(C(F)(F)F)cc3)cc2c1	–	–	–	half-life (liver carboxylesterase): > 72 h
CC(=O)N1C[C@@H]2C[C@H]1C[C@H]2c1ccc(-c2cc(C(=O)O)cc3cc(-c4ccc(C(F)(F)F)cc4)ccc23)cc1	–	–	64.1 nM	logD [2]: 0.55; Ki [5]: 4200 nM; Ki (D(1B) dopamine receptor): > 1000 nM; Ki [6]: 1700 nM
N[C@H]1C[C@@H](C(=O)O)C[C@@H]1c1ccc(-c2cc(C(=O)O)cc3cc(-c4ccc(C(F)(F)F)cc4)ccc23)cc1	–	–	269 nM	–
O=C(O)c1cc(-c2ccc(C3CC4CCC3CN4)cc2)c2ccc(-c3ccc(C(F)(F)F)cc3)cc2c1 (configuration not stated)	–	1.7	25.1 nM	–
O=C(O)c1cc(-c2ccc([C@@H]3CCN[C@@H]4C[C@@H]43)cc2)c2ccc(-c3ccc(C(F)(F)F)cc3)cc2c1 (racemic)	0.05 µg/mL (≈ 0.103 µM)	1.8	–	solubility ([4]; buffer): 0.24 µg/mL (≈ 0.492 µM)
N[C@@H]1C[C@H](C(=O)O)[C@@H](c2ccc(-c3cc(C(=O)O)cc4cc(-c5ccc(C(F)(F)F)cc5)ccc34)cc2)C1	–	–	–	Ki [6]: 2000 nM
CC(=O)N1C[C@@H]2C[C@H]1C[C@H]2c1ccc(-c2cc(C(=O)O)cc3cc(-c4ccc(C(F)(F)F)cc4)ccc23)cc1 (racemic)	2.53 µg/mL (≈ 4.78 µM)	0.92	–	solubility ([4]; buffer): 0.13 µg/mL (≈ 0.245 µM)
CC1CC(c2ccc(-c3cc(C(=O)O)cc4cc(-c5ccc(C(F)(F)F)cc5)ccc34)cc2)CCN1 (configuration not stated)	–	2.1	–	–
O=C(O)c1cc(-c2ccc(C34CCN(CC3)CC4)cc2)c2ccc(-c3ccc(C(F)(F)F)cc3)cc2c1	0.55 µg/mL (≈ 1.1 µM)	4.2	–	solubility ([4]; buffer): 1.5 µg/mL (≈ 2.99 µM)
O=C(O)c1cc(-c2ccc([C@@H]3C[C@@H]4C[C@H]3C(=O)N4)cc2)c2ccc(-c3ccc(C(F)(F)F)cc3)cc2c1	–	0.49	–	Ki [7]: > 1000 nM; Ki [5]: 3200 nM; Ki [6]: 1900 nM
CC1CNCCC1c1ccc(-c2cc(C(=O)O)cc3cc(-c4ccc(C(F)(F)F)cc4)ccc23)cc1 (configuration not stated)	–	2.8	–	–
CC(=O)N1C[C@H]2C[C@@H]1C[C@@H]2c1ccc(-c2cc(C(=O)O)cc3cc(-c4ccc(C(F)(F)F)cc4)ccc23)cc1	–	0.92	99.3 nM	–
O=C(O)c1cc(-c2ccc(C3=CC4CCC(C3)N4)cc2)c2ccc(-c3ccc(C(F)(F)F)cc3)cc2c1 (racemic)	–	2.3	–	–
O=C(O)c1cc(-c2ccc([C@H]3C[C@H]4C[C@@H]3CN4)cc2)c2ccc(-c3ccc(C(F)(F)F)cc3)cc2c1 (racemic)	0.47 µg/mL (≈ 0.964 µM)	2	–	Ki [7]: > 1000 nM; Ki [6]: 650 nM; solubility ([4]; buffer): 2.73 µg/mL (≈ 5.6 µM)

SMILES	solubility ([1]; buffer)	logD ([2]; read-out: logD)	IC50 (P2Y purinoceptor 14 [3])	also measured
COC1(c2ccc(-c3cc(C(=O)O)cc4cc(-c5ccc(C(F)(F)F)cc5)ccc34)cc2)[C@H]2CC[C@H]1CNC2 (some centres not stated)	–	1.4	44.6 nM	solubility ([1]; aqueous medium): 0.88 µg/mL (≈ 1.66 µM); solubility ([4]; buffer): 1.81 µg/mL (≈ 3.4 µM)
O=C(O)c1cc(-c2ccc(C3(O)[C@H]4CC[C@H]3CNC4)cc2)c2ccc(-c3ccc(C(F)(F)F)cc3)cc2c1 (some centres not stated)	0.54 µg/mL (≈ 1.04 µM)	1.2	21.3 nM	IC50 (P2Y purinoceptor 14 [8]): 15.5 nM; Ki [5]: 1700 nM; Ki [6]: 1700 nM; solubility ([4]; buffer): 2.32 µg/mL (≈ 4.48 µM)
N[C@H]1C[C@@H](C(=O)O)[C@H](c2ccc(-c3cc(C(=O)O)cc4cc(-c5ccc(C(F)(F)F)cc5)ccc34)cc2)C1	–	-0.57	–	–
O=C(O)c1cc(-c2ccc([C@@]3(O)C[C@H]4CC[C@@H]3CN4)cc2)c2ccc(-c3ccc(C(F)(F)F)cc3)cc2c1 (racemic)	–	0.96	15.6 nM	–
CCOC(=O)N1C[C@H]2C[C@@H]1C[C@@H]2c1ccc(-c2cc(C(=O)O)cc3cc(-c4ccc(C(F)(F)F)cc4)ccc23)cc1	–	–	442 nM	–
O=C(O)c1cc(-c2ccc([C@@H]3C[C@H]4CN[C@@H]3C4)cc2)c2ccc(-c3ccc(C(F)(F)F)cc3)cc2c1	–	2.1	–	IC50 (P2Y purinoceptor 14 [8]): 90.9 nM; Ki [6]: 1000 nM
O=C(O)c1cc(-c2ccc([C@H]3C[C@H]4C[C@@H]3NC4=O)cc2)c2ccc(-c3ccc(C(F)(F)F)cc3)cc2c1	–	–	–	Ki [7]: > 1000 nM; Ki [5]: 2600 nM; Ki (D(1B) dopamine receptor): > 1000 nM; Ki (Translocator protein): 1400 nM; Ki [6]: 1400 nM
N[C@@H]1C[C@H](C(=O)O)C[C@H]1c1ccc(-c2cc(C(=O)O)cc3cc(-c4ccc(C(F)(F)F)cc4)ccc23)cc1	–	-0.48	–	–
O=C(O)c1cc(-c2ccc([C@@]3(O)C[C@H]4CC[C@@H](C3)N4)cc2)c2ccc(-c3ccc(C(F)(F)F)cc3)cc2c1	–	1.2	–	–
O=C(O)c1cc(-c2ccc(C34CCNCC3C4)cc2)c2ccc(-c3ccc(C(F)(F)F)cc3)cc2c1 (racemic)	0.17 µg/mL (≈ 0.349 µM)	2.4	45.5 nM	solubility ([4]; aqueous medium): 1.32 µg/mL (≈ 2.71 µM)
O=C(O)c1cc(-c2ccc(C3(O)[C@H]4CC[C@H]3CN(Cc3ccccc3)C4)cc2)c2ccc(-c3ccc(C(F)(F)F)cc3)cc2c1 (some centres not stated)	0.14 µg/mL (≈ 0.23 µM)	3.3	–	solubility ([4]; buffer): 0.48 µg/mL (≈ 0.79 µM)
N[C@@H]1C[C@H](CO)C[C@H]1c1ccc(-c2cc(C(=O)O)cc3cc(-c4ccc(C(F)(F)F)cc4)ccc23)cc1	–	1.1	–	–
CC(=O)N1C[C@@H]2C[C@H]1C[C@H]2c1ccc(-c2cc(C(=O)OCC(=O)N(C)C)cc3cc(-c4ccc(C(F)(F)F)cc4)ccc23)cc1	–	–	–	half-life (liver carboxylesterase): > 72 h
O=C(O)c1cc(-c2ccc([C@H]3CCN[C@@H]4C[C@H]34)cc2)c2ccc(-c3ccc(C(F)(F)F)cc3)cc2c1 (relative stereo)	0.51 µg/mL (≈ 1.05 µM)	2.6	–	solubility ([4]; aqueous medium): 0.1 µg/mL (≈ 0.205 µM)
O=C(O)c1cc(-c2ccc([C@]3(O)C[C@H]4CC[C@@H]3CN4)cc2)c2ccc(-c3ccc(C(F)(F)F)cc3)cc2c1 (racemic)	–	0.74	114 nM	–
N[C@@H]1C[C@H](CO)[C@@H](c2ccc(-c3cc(C(=O)O)cc4cc(-c5ccc(C(F)(F)F)cc5)ccc34)cc2)C1	–	–	–	Ki [6]: 1000 nM
